Holding throughout (type): in vivo
In test [1] the test system is 6-month-old stressed mice (UCMS). As to the kind of experiment: Forced swim test (Porsolt; depressive behavior) in UCMS-stressed mice. As to the method: The solutions were administered orally by gastric intubation to mice (1 tube-feed per day). The preparation of the solutions is performed extemporaneously and the administration is performed in the morning. During the behavioral sessions, the solutions are administered one hour before the start of the session. The gastric incubation always takes place in a different room from the one in which the behavioral test is performed. […] The mice were divided into independent groups according to the following treatments: For each group, the administration of the various solutions lasts 21 consecutive days (3 weeks). The behavioral tests are performed 4 weeks after induction of the model (“elevated plus maze” and “tail suspension”) and 3 weeks after the daily intubations (“open field” and “forced swim”). The forced swim test (Porsolt) is a test commonly used for evaluating depressive behavior in mice. This test is based on behavioral despair. […] An animal displaying depressive behaviour will spend more time immobile than the non-depressive control mouse. After the session, the animal is dried and placed under warm light. Three parameters for evaluating the depressive behaviour are noted: the time spent swimming, the time spent climbing and the time spent immobile for each animal and also their respective percentage.

Test [2] has as its system intestinal microbiota of the stressed mice. As to the kind of experiment: Composition of the fecal microbiota by analysis of the 16S rRNA. Conditions: before vs after treatment, relative to placebo group. As to the method:
The composition of the microbiota of the animals was analyzed in order to determine the influence of the formula on the bacterial composition of the fecal microbiota of the stressed mice and to compare it with the influence of the drug or of the placebo.
The animals' feces were sampled in order for a DNA extraction to be performed (Zymo Research based kits). The V3-V4 regions of the 16S rRNA gene are amplified and sequencing is performed on an ILLUMINA MiSeq system using the 2*250 bp mode. Sequence analysis is performed after correction using SPAdes ([…]) and regrouping is performed using PEAR (Zhang J. et al. Bioinformatics 2014; 30(5): 614-20). The OTUs (Operational Taxonomic Units) are identified with the Vsearch tool (Rognes T. et al. Peer J., 2016; 4: e2584), the taxonomic classification arising therefrom was performed by means of the RDP (Ribosomal Database Project) database.
The majority of the diversity studies based on 16S rDNA define the OTUs as being sets of sequences having at least 97% identity with each other. The OTUs are, in point of fact, the unit for measuring the specific richness in microbial ecology.
The statistical analyses were performed using the R program (Team RDC. R: A Language and Environment for Statistical Computing. 2012, Austria: R Foundation for Statistical Computing) and various packets (Ade4, Vegan). […]

Test [3] deals with 6-month-old stressed mice (UCMS). As to the kind of experiment: Open field test (anxiety behavior) in UCMS-stressed mice. Conditions: induced model (UCMS) mice, n = 12, after 21 days of daily oral gastric intubation (glutamine 24 mg, curcuma extract 1.2 mg, L. rhamnosus GG 0.120 mg per mouse); clomipramine 10 mg/kg intraperitoneal; 5 min session. The protocol:
The solutions were administered orally by gastric intubation to mice (1 tube-feed per day).
The preparation of the solutions is performed extemporaneously and the administration is performed in the morning. During the behavioral sessions, the solutions are administered one hour before the start of the session. The gastric incubation always takes place in a different room from the one in which the behavioral test is performed.
In order to evaluate the results obtained with the solutions, one group of mice received a parenteral administration of a tricyclic antidepressant (clomipramine). The mice were divided into independent groups according to the following treatments:
For each group, the administration of the various solutions lasts 21 consecutive days (3 weeks). The behavioral tests are performed 4 weeks after induction of the model (“elevated plus maze” and “tail suspension”) and 3 weeks after the daily intubations (“open field” and “forced swim”).
The open field test is a circular arena (ø 1 m) surrounded by an opaque wall 25 cm tall placed in a room with uniform lighting of 70 lux. The mice are placed facing the wall at the periphery of the arena and can explore freely for 5 minutes. The area of the open field is practically divided into a peripheral zone (12 cm wide) and a central zone (the remaining area of the arena). The time (in seconds) spent in the central zone is automatically noted by videotracking. The more time a mouse spends in the central zone, the less anxious it is.
The anxiety behavior was evaluated by means of the open field test. The mean time spent by the mice at the center of the apparatus is measured.

Where [4] appears, read: induced model (UCMS) mice, n = 12, after 21 days of daily oral gastric intubation, clomipramine 10 mg/kg intraperitoneal, 6 min session.

Marks after values point to notes of the source that are not given here.

On to `CN(C)CCCN1c2ccccc2CCc2ccc(Cl)cc21` [Clomipramine, reference compound], for which the “Forced swim test swimming time, effect in words” value in test [1] (compared with the other groups, 21 days treatment) is recorded as “spending more time swimming when compared with the other groups”. Further, the “Beta-diversity of the intestinal microbiota (PCoA), change of microbiotal profile, in words” value in test [2] is “would stabilize the dysbiosis induced by the 4 weeks of stress relative to the placebo group”. Besides, in test [3], the “Open field test Mean (seconds): time spent in the central zone” value (“Open field test Mean (seconds)” for short) was 56.8 s.

As for `NC(=O)CC[C@H](N)C(=O)O` [Glutamine], the “Open field test Mean (seconds)” value in test [3] came to 42.9 s.

Regarding Lactobacillus rhamnosus GG, in test [1] (setting [4]), the “Forced swim test Climbing (dry)” value is listed as 113.5* s, the “Forced swim test Immobility (dry)” value is reported as 106.8* s and the “Forced swim test Swimming (dry)” value worked out at 139.8 s. The “Open field test Mean (seconds)” value in test [3] came out at 41.6 s.

The record behind these values is patent publication US20220249591A1, “COMPOSITION FOR THE TREATMENT OF EMOTIONAL DISORDERS” (priority 2019, published 2022).
